Source: US20230085307A1, “PYRIDAZINONE COMPOUND AND HERBICIDE” (NISSAN CHEMICAL CORPORATION, priority 2019, published 2023)

Tests used:
[1] = system: rice flat sedge; experiment: Test Example 3: herbicidal effect by foliage application, Wagner pot (Table 18, symbol E); format: in vivo, rice flat sedge (Cyperus iria); details: for herbicidal effect on rice flat sedge (E): 320 g/ha; for herbicidal effect on E: rice flat sedge: amount of applied herbicide 320 g/ha
Outline: (§1)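 Plants were sown in alluvial soil held under 0.1–0.5 cm standing water and grown 14 days in a greenhouse at 25–30 °C. An emulsifiable formulation, water-diluted to the set dose, was then sprayed onto the foliage, and effects were scored three weeks later using previously defined criteria.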

[2] = system: green foxtail; experiment: Test Example 4: herbicidal effect by soil treatment (Table 19, symbol G); format: in vivo, green foxtail (Setaria viridis); details: amount of applied herbicide 320 g/ha
Outline: (§2)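 Emulsion of test compound, water-diluted to predetermined amount, sprayed on soil after sowing (seed depth ~1.5 cm, sterilized diluvial soil). Greenhouse, 25–30° C. Effect graded at three weeks post-spray.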

[3] = system: redroot pigweed; experiment: Test Example 4: herbicidal effect by soil treatment (Table 19, symbol N); format: in vivo, redroot pigweed (Amaranthus retroflexus); details: amount of applied herbicide 320 g/ha
Outline: as §2

[4] = system: oval-leafed pondweed; experiment: Test Example 1: herbicidal activity, application before weed generation under submerged conditions (Table 16, symbol C); format: in vivo, oval-leafed pondweed (Monochoria vaginalis); details: amount of applied herbicide 320 g/ha
Outline: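 Alluvial soil was flooded to 4 cm depth, weed seeds were sown mixed and 2.5-leaf rice seedlings were transplanted. On sowing day, the compound's emulsion, diluted in water to a set dose, was applied to the water surface. Plants grew at 25–30 °C and were scored 0–5 after three weeks.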

[5] = system: wild oat; experiment: Test Example 4: herbicidal effect by soil treatment (Table 19, symbol I); format: in vivo, wild oat (Avena fatua); details: amount of applied herbicide 320 g/ha
Outline: as §2

[6] = system: southern crabgrass; experiment: Test Example 5: herbicidal effect by foliage application, plastic box (Table 20, symbol F); format: in vivo, southern crabgrass (Digitaria ciliaris); details: foliage application, 320 g/ha, three weeks after application
Outline: (§3)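 Post-emergence foliar test in sterilized diluvial soil. Compound applied as water-diluted emulsion at a predetermined rate to 14-day-old plants; evaluation at three weeks.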

[7] = system: Chinese sprangletop; experiment: Test Example 3: herbicidal effect by foliage application, Wagner pot (Table 18, symbol D); format: in vivo, chinese sprangletop (Leptochloa chinensis); details: for herbicidal effect on Chinese sprangletop (D): 320 g/ha; for herbicidal effect on D: Chinese sprangletop: amount of applied herbicide 320 g/ha
Outline: as §1

[8] = system: Japanese bulrush; experiment: Test Example 2: herbicidal activity, application during weed generation under submerged conditions (Table 17, symbol B); format: in vivo, Japanese bulrush (Schoenoplectus juncoides); details: AAH 320 g/ha; application during weed generation, submerged conditions
Outline: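 Steps: fill Wagner pots with alluvial soil; add water to give 4 cm depth; sow the species mixed; grow under glass at 25–30° C.; at 1–2 leaves apply water-diluted emulsion formulation to the water surface at a fixed herbicide amount; score after 3 weeks.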

[9] = system: blackgrass; experiment: Test Example 5: herbicidal effect by foliage application, plastic box (Table 20, symbol J); format: in vivo, blackgrass (Alopecurus myosuroides); details: foliage application, 320 g/ha, three weeks after application
Outline: as §3

[10] = system: wild oat; experiment: Test Example 5: herbicidal effect by foliage application, plastic box (Table 20, symbol I); format: in vivo, wild oat (Avena fatua); details: foliage application, 320 g/ha, three weeks after application
Outline: as §3

[11] = system: southern crabgrass; experiment: Test Example 4: herbicidal effect by soil treatment (Table 19, symbol F); format: in vivo, southern crabgrass (Digitaria ciliaris); details: amount of applied herbicide 320 g/ha
Outline: as §2

[12] = system: false cleavers; experiment: Test Example 5: herbicidal effect by foliage application, plastic box (Table 20, symbol Q); format: in vivo, false cleavers (Galium spurium); details: foliage application, 320 g/ha, three weeks after application
Outline: as §3

[13] = system: Italian ryegrass; experiment: Test Example 5: herbicidal effect by foliage application, plastic box (Table 20, symbol K); format: in vivo, Italian ryegrass (Lolium multiflorum); details: foliage application, 320 g/ha, three weeks after application
Outline: as §3

[14] = system: blackgrass; experiment: Test Example 4: herbicidal effect by soil treatment (Table 19, symbol J); format: in vivo, blackgrass (Alopecurus myosuroides); details: amount of applied herbicide 320 g/ha
Outline: as §2

[15] = system: lambsquarters; experiment: Test Example 5: herbicidal effect by foliage application, plastic box (Table 20, symbol O); format: in vivo, lambsquarters (Chenopodium album); details: foliage application, 320 g/ha, three weeks after application
Outline: as §3

[16] = system: velvetleaf; experiment: Test Example 5: herbicidal effect by foliage application, plastic box (Table 20, symbol M); format: in vivo, velvetleaf (Abutilon theophrasti); details: foliage application, 320 g/ha, three weeks after application
Outline: as §3

[17] = system: barnyard grass; experiment: Test Example 5: herbicidal effect by foliage application, plastic box (Table 20, symbol H); format: in vivo, barnyard grass (Echinochloa crus-galli); details: foliage application, 320 g/ha, three weeks after application
Outline: as §3

## CCOc1ccc2c(-c3c(O)c(C)nn(C)c3=O)c(-c3ccc(OC)cc3)sc2c1 [3-091]
[1]
  herbicidal effect on rice flat sedge (E): 4 (Herbicidal rate of 70% or more and less than 90%)
[2]
  G: green foxtail, herbicidal effect grade: 0 (Herbicidal rate of 5% or less (almost no effect))
[3]
  N: redroot pigweed, herbicidal effect grade: 3 (Herbicidal rate of 40% or more and less than 70%)
[4]
  Herbicidal effect, C: oval-leafed pondweed: 4 (Herbicidal rate of 70% or more and less than 90%)
[5]
  I: wild oat, herbicidal effect grade: 0 (Herbicidal rate of 5% or less (almost no effect))
[6]
  F: southern crabgrass, herbicidal effect grade: 2 (Herbicidal rate of 20% or more and less than 40%)
[7]
  herbicidal effect on Chinese sprangletop (D): 0 (Herbicidal rate of 5% or less (almost no effect))
[8]
  herbicidal effect rating, B: Japanese bulrush: 3 (Herbicidal rate of 40% or more and less than 70%)
[9]
  J: blackgrass, herbicidal effect grade: 3 (Herbicidal rate of 40% or more and less than 70%)
[10]
  I: wild oat, herbicidal effect grade: 0 (Herbicidal rate of 5% or less (almost no effect))
[11]
  F: southern crabgrass, herbicidal effect grade: 2 (Herbicidal rate of 20% or more and less than 40%)
[12]
  Q: false cleavers, herbicidal effect grade: 5 (Herbicidal rate of 90% or more (almost completely withered))
[13]
  K: Italian ryegrass, herbicidal effect grade: 0 (Herbicidal rate of 5% or less (almost no effect))
[14]
  J: blackgrass, herbicidal effect grade: 0 (Herbicidal rate of 5% or less (almost no effect))
[15]
  O: lambsquarters, herbicidal effect grade: 5 (Herbicidal rate of 90% or more (almost completely withered))
[16]
  M: velvetleaf, herbicidal effect grade: 4 (Herbicidal rate of 70% or more and less than 90%)
[17]
  H: barnyard grass, herbicidal effect grade: 3 (Herbicidal rate of 40% or more and less than 70%)

## CCOc1cc(F)ccc1-c1sc2cc(F)ccc2c1-c1c(O)c(C)nn(C)c1=O [3-011]
[1]
  herbicidal effect on E: rice flat sedge: 5 (Herbicidal rate of 90% or more (almost completely withered))
[2]
  herbicidal effect, G: green foxtail: 5 (Herbicidal rate of 90% or more (almost completely withered))
[3]
  herbicidal effect, N: redroot pigweed: 5 (Herbicidal rate of 90% or more (almost completely withered))
[4]
  Herbicidal effect, C: oval-leafed pondweed: 3 (Herbicidal rate of 40% or more and less than 70%)
[5]
  herbicidal effect, I: wild oat: 4 (Herbicidal rate of 70% or more and less than 90%)
[6]
  F: southern crabgrass, herbicidal effect grade: 5 (Herbicidal rate of 90% or more (almost completely withered))
[7]
  herbicidal effect on D: Chinese sprangletop: 4 (Herbicidal rate of 70% or more and less than 90%)
[8]
  herbicidal effect rating, B: Japanese bulrush: 3 (Herbicidal rate of 40% or more and less than 70%)
[9]
  J: blackgrass, herbicidal effect grade: 5 (Herbicidal rate of 90% or more (almost completely withered))
[10]
  I: wild oat, herbicidal effect grade: 5 (Herbicidal rate of 90% or more (almost completely withered))
[11]
  herbicidal effect, F: southern crabgrass: 5 (Herbicidal rate of 90% or more (almost completely withered))
[12]
  Q: false cleavers, herbicidal effect grade: 5 (Herbicidal rate of 90% or more (almost completely withered))
[13]
  K: Italian ryegrass, herbicidal effect grade: 5 (Herbicidal rate of 90% or more (almost completely withered))
[14]
  herbicidal effect, J: blackgrass: 5 (Herbicidal rate of 90% or more (almost completely withered))
[15]
  O: lambsquarters, herbicidal effect grade: 5 (Herbicidal rate of 90% or more (almost completely withered))
[16]
  M: velvetleaf, herbicidal effect grade: 5 (Herbicidal rate of 90% or more (almost completely withered))
[17]
  H: barnyard grass, herbicidal effect grade: 5 (Herbicidal rate of 90% or more (almost completely withered))

## CCCC(=O)Oc1c(C)nn(C)c(=O)c1-c1c(-c2ccc(OC(C)C)cc2)sc2cc(F)ccc12 [3-020]
[1]
  herbicidal effect on E: rice flat sedge: 5 (Herbicidal rate of 90% or more (almost completely withered))
[2]
  herbicidal effect, G: green foxtail: 0 (Herbicidal rate of 5% or less (almost no effect))
[3]
  herbicidal effect, N: redroot pigweed: 4 (Herbicidal rate of 70% or more and less than 90%)
[4]
  Herbicidal effect, C: oval-leafed pondweed: 2 (Herbicidal rate of 20% or more and less than 40%)
[5]
  herbicidal effect, I: wild oat: 0 (Herbicidal rate of 5% or less (almost no effect))
[6]
  F: southern crabgrass, herbicidal effect grade: 0 (Herbicidal rate of 5% or less (almost no effect))
[7]
  herbicidal effect on D: Chinese sprangletop: 3 (Herbicidal rate of 40% or more and less than 70%)
[8]
  herbicidal effect rating, B: Japanese bulrush: 0 (Herbicidal rate of 5% or less (almost no effect))
[9]
  J: blackgrass, herbicidal effect grade: 2 (Herbicidal rate of 20% or more and less than 40%)
[10]
  I: wild oat, herbicidal effect grade: 0 (Herbicidal rate of 5% or less (almost no effect))
[11]
  herbicidal effect, F: southern crabgrass: 0 (Herbicidal rate of 5% or less (almost no effect))
[12]
  Q: false cleavers, herbicidal effect grade: 4 (Herbicidal rate of 70% or more and less than 90%)
[13]
  K: Italian ryegrass, herbicidal effect grade: 2 (Herbicidal rate of 20% or more and less than 40%)
[14]
  herbicidal effect, J: blackgrass: 0 (Herbicidal rate of 5% or less (almost no effect))
[15]
  O: lambsquarters, herbicidal effect grade: 3 (Herbicidal rate of 40% or more and less than 70%)
[16]
  M: velvetleaf, herbicidal effect grade: 3 (Herbicidal rate of 40% or more and less than 70%)
[17]
  H: barnyard grass, herbicidal effect grade: 2 (Herbicidal rate of 20% or more and less than 40%)

## Cc1nn(C)c(=O)c(-c2c(-c3ccc4c(c3)OCCO4)sc3cc(F)ccc23)c1O [3-013]
[1]
  herbicidal effect on E: rice flat sedge: 5 (Herbicidal rate of 90% or more (almost completely withered))
[2]
  herbicidal effect, G: green foxtail: 4 (Herbicidal rate of 70% or more and less than 90%)
[3]
  herbicidal effect, N: redroot pigweed: 4 (Herbicidal rate of 70% or more and less than 90%)
[4]
  Herbicidal effect, C: oval-leafed pondweed: 2 (Herbicidal rate of 20% or more and less than 40%)
[5]
  herbicidal effect, I: wild oat: 0 (Herbicidal rate of 5% or less (almost no effect))
[6]
  F: southern crabgrass, herbicidal effect grade: 4 (Herbicidal rate of 70% or more and less than 90%)
[7]
  herbicidal effect on D: Chinese sprangletop: 4 (Herbicidal rate of 70% or more and less than 90%)
[8]
  herbicidal effect rating, B: Japanese bulrush: 0 (Herbicidal rate of 5% or less (almost no effect))
[9]
  J: blackgrass, herbicidal effect grade: 0 (Herbicidal rate of 5% or less (almost no effect))
[10]
  I: wild oat, herbicidal effect grade: 0 (Herbicidal rate of 5% or less (almost no effect))
[11]
  herbicidal effect, F: southern crabgrass: 4 (Herbicidal rate of 70% or more and less than 90%)
[12]
  Q: false cleavers, herbicidal effect grade: 5 (Herbicidal rate of 90% or more (almost completely withered))
[13]
  K: Italian ryegrass, herbicidal effect grade: 1 (Herbicidal rate of 5% or more and less than 20%)
[14]
  herbicidal effect, J: blackgrass: 0 (Herbicidal rate of 5% or less (almost no effect))
[15]
  O: lambsquarters, herbicidal effect grade: 5 (Herbicidal rate of 90% or more (almost completely withered))
[16]
  M: velvetleaf, herbicidal effect grade: 4 (Herbicidal rate of 70% or more and less than 90%)
[17]
  H: barnyard grass, herbicidal effect grade: 3 (Herbicidal rate of 40% or more and less than 70%)

## CCOc1ccccc1-c1sc2cc(C)ccc2c1-c1c(O)c(C)nn(C)c1=O [3-053]
[1]
  herbicidal effect on rice flat sedge (E): 5 (Herbicidal rate of 90% or more (almost completely withered))
[2]
  G: green foxtail, herbicidal effect grade: 5 (Herbicidal rate of 90% or more (almost completely withered))
[3]
  N: redroot pigweed, herbicidal effect grade: 3 (Herbicidal rate of 40% or more and less than 70%)
[4]
  Herbicidal effect, C: oval-leafed pondweed: 4 (Herbicidal rate of 70% or more and less than 90%)
[5]
  I: wild oat, herbicidal effect grade: 4 (Herbicidal rate of 70% or more and less than 90%)
[6]
  F: southern crabgrass, herbicidal effect grade: 5 (Herbicidal rate of 90% or more (almost completely withered))
[7]
  herbicidal effect on Chinese sprangletop (D): 4 (Herbicidal rate of 70% or more and less than 90%)
[8]
  herbicidal effect rating, B: Japanese bulrush: 3 (Herbicidal rate of 40% or more and less than 70%)
[9]
  J: blackgrass, herbicidal effect grade: 5 (Herbicidal rate of 90% or more (almost completely withered))
[10]
  I: wild oat, herbicidal effect grade: 5 (Herbicidal rate of 90% or more (almost completely withered))
[11]
  F: southern crabgrass, herbicidal effect grade: 5 (Herbicidal rate of 90% or more (almost completely withered))
[12]
  Q: false cleavers, herbicidal effect grade: 5 (Herbicidal rate of 90% or more (almost completely withered))
[13]
  K: Italian ryegrass, herbicidal effect grade: 5 (Herbicidal rate of 90% or more (almost completely withered))
[14]
  J: blackgrass, herbicidal effect grade: 3 (Herbicidal rate of 40% or more and less than 70%)
[15]
  O: lambsquarters, herbicidal effect grade: 5 (Herbicidal rate of 90% or more (almost completely withered))
[16]
  M: velvetleaf, herbicidal effect grade: 5 (Herbicidal rate of 90% or more (almost completely withered))
[17]
  H: barnyard grass, herbicidal effect grade: 5 (Herbicidal rate of 90% or more (almost completely withered))
